{"source": "patent US12702693B2", "about": "“Treatment of cystic fibrosis by delivery of codon-optimized mRNA encoding CFTR” (Translate Bio, Inc., priority 2017, dated 2026)", "key": {"[1]": {"conditions": "available data; cited from earlier work"}, "[2]": {"system": "human bronchial epithelial cells", "assay": "Ussing chamber assay of Forskolin-induced chloride channel activity", "type": "cell-based", "conditions": "all groups", "protocol": "The changes in chloride transport across the bronchial epithelial cell membrane was measured by short circuit current output in an Ussing epithelial voltage clamp apparatus (i.e., a Ussing chamber). Specifically, using an established Ussing Chamber procedure (Charles River Laboratories), hCFTR mRNA encapsulated in a liposome comprising ICE, DOPE, and a PEG-modified lipid was incubated for 2 or 4 hours on the apical (mucosal) or basolateral (serosal) sides, or both sides, of human bronchial epithelial cells. A buffer blank also was included as a control, for example, to assess chloride transport by endogenous CFTR in the cells. Next, Forskolin-induced chloride channel activity was measured using the Ussing chamber assay."}}}
{"molecule": "c1c[nH]cn1", "note": "[imidazole]", "values": [{"measurement": "mutagenicity/genotoxicity data", "setting": "[1]", "result": "negative"}]}
{"molecule": "CCC(=O)O", "note": "[propionic acid]", "values": [{"measurement": "mutagenicity/genotoxicity data", "setting": "[1]", "result": "negative"}]}
{"molecule": "CC(C)CCC[C@@H](C)[C@H]1CC[C@H]2[C@@H]3CC=C4C[C@@H](O)CC[C@]4(C)[C@H]3CC[C@]12C", "note": "[cholesterol]", "values": [{"measurement": "mutagenicity/genotoxicity data", "setting": "[1]", "result": "negative"}]}
{"molecule": "O=C(O)c1ccc(/C=C2\\SC(=S)N(c3cccc(C(F)(F)F)c3)C2=O)cc1", "note": "[CFTR inhibitor-172]", "values": [{"measurement": "chloride activity after addition of CFTR inhibitor", "setting": "[2]", "result": "inhibited"}]}
